The values below come from PMC11866407, “Structure of Clostridium leptum carboxyspermidine decarboxylase and comparison to homologs prevalent within the human gut microbiome” (Acta Crystallographica Section F: Structural Biology …, 2025).

The target of the assay is T1, Clostridium leptum carboxyspermidine decarboxylase (ClCASDC) ([Clostridium] leptum, UniProt A7VSG2).
T1 construct: gene nspC; full length (376 residues), N-terminal His6 tag kept (pET-28b NdeI/XhoI), E. coli BL21 (DE3), codon-optimized; homodimer
T1 sequence (A7VSG2 1-376): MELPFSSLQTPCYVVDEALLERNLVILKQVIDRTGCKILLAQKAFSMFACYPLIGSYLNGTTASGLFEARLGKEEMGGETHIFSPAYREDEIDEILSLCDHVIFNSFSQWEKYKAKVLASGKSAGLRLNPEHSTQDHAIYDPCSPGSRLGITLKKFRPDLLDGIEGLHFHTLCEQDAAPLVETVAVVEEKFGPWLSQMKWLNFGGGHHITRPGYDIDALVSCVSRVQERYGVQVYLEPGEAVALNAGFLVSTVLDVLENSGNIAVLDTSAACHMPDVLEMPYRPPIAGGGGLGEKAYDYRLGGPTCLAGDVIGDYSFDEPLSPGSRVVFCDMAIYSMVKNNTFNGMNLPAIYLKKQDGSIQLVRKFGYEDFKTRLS
The assay is described as follows: X-ray crystal structure, […] Å. Particulars: covalent; Schiff base (internal aldimine) with Lys43; pre-incubated with 100 µM PLP, 5 mM DTT; HEPES pH 6.8; both chains. It counts as binding.

In the case of `Cc1ncc(COP(=O)(O)O)c(C=O)c1O` [PLP, pyridoxal 5′-phosphate], the “X-ray crystal structure, 1.41 Å” value is reported as “PLP forms a Schiff base with Lys43 in both chains”.
